Reference: article PMC7180948, “New Insights into 4-Anilinoquinazolines as Inhibitors of Cardiac Troponin I–Interacting Kinase (TNNi3K)” (Molecules, 2020)

Molecular target: T1, cardiac troponin I–interacting kinase (TNNi3K) (Homo sapiens, UniProt Q59H18)
T1 sequence (Q59H18 1-835): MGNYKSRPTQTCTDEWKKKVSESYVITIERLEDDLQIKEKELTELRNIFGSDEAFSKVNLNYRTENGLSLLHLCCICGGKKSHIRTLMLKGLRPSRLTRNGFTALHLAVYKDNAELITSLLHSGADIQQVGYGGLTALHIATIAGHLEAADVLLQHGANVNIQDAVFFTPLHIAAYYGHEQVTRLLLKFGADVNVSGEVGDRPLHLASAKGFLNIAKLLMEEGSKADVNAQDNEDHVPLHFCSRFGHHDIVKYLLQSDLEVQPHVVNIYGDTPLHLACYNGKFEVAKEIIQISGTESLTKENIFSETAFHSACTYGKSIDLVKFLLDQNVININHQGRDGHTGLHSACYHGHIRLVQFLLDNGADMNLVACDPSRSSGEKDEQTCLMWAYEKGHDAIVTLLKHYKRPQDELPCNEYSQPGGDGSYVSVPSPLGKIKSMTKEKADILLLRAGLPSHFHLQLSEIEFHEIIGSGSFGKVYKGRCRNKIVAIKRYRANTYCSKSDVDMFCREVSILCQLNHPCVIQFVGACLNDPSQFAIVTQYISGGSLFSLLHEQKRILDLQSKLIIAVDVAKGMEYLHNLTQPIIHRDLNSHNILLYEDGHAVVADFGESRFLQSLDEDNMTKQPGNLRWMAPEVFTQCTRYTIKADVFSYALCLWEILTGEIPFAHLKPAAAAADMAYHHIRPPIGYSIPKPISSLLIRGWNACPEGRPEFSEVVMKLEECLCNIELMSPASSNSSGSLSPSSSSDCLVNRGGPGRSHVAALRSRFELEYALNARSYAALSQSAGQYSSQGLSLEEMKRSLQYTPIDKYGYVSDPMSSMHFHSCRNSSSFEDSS
Assay: TNNi3K binding assay (Kd, n = […])

| Kd [nM] | Compound |
| --- | --- |
| 90 | CNS(=O)(=O)c1ccc(N(C)C)c(Nc2ncnc3ccc(OC)cc23)c1 [compound 16, 4-(dimethylamino)-3-((6-methoxyquinazolin-4-yl)amino)-N-methylbenzenesulfonamide] |
| 120 | CNS(=O)(=O)c1cccc(Nc2ncnc3cc(OC)c(OC)cc23)c1 [compound 2, 3-((6,7-dimethoxyquinazolin-4-yl)amino)-N-methylbenzenesulfonamide] |
| 6200 | COc1cc2ncnc(Nc3ccccc3N(C)C)c2cc1OC [compound 20, N^1-(6,7-dimethoxyquinazolin-4-yl)-N^2,N^2-dimethylbenzene-1,2-diamine] |
| 11 | CNS(=O)(=O)c1ccc(N(C)C)c(Nc2ncnc3cc(OC)ccc23)c1 [compound 17, 4-(dimethylamino)-3-((7-methoxyquinazolin-4-yl)amino)-N-methylbenzenesulfonamide] |
